System: intragastric pH
Assay: 24-hr intragastric pH monitoring (pharmacodynamics)
Format: in vivo, healthy male subjects
Conditions: oral once-daily dosing; for % time intragastric pH ≧4.0: 24-hr monitoring, p<0.0001 vs esomeprazole, dose level and day not stated
Protocol: Methods: Forty healthy male subjects received 240, 480, and 640 mg AGN 201904-Z or 40 mg esomeprazole orally once-daily for 5 days in a open-label, randomized, 4-way cross-over study. These doses were estimated to deliver molar equivalent omeprazole doses of 53%, 107%, and 143% of the esomeprazole dose, respectively. Pharmacokinetic (PK) blood samples were collected at 8 timepoints following the 1st and 5th dose of each treatment. Pharmacodynamics (PD) were evaluated via 24-hr intragastric ph monitoring before treatment and after the 1st and 5th doses of each treatment. Empirical PK/PD models were constructed for AGN 201904-Z data by regressing the % time that intragastric pH ≧4.0 during a 24-hr dosing period against the duration of time that blood omeprazole concentrations were greater than 8 different concentrations over the same 24-hr period. The possible threshold concentrations evaluated ranged from 10 to 400 ng/mL. The concentration that provided the best-fit was designated the threshold concentration. The best-fit concentration and model was chosen based on the WSSR, R^2, visual inspection, and AIC value. Results: Among the possible omeprazole threshold concentrations evaluated, 50 ng/mL was the best-fit concentration value in all of the models evaluated.

For `COc1ccc2nc([S@@+]([O-])Cc3ncc(C)c(OC)c3C)[nH]c2c1` [esomeprazole, reference compound], the “% time intragastric pH ≧4.0” value was 68.4 % of 24-hr.

In the case of `COc1ccc2c(c1)nc([S+]([O-])Cc1ncc(C)c(OC)c1C)n2S(=O)(=O)c1ccc(OCC(=O)[O-])cc1.[Na+]` (stereo not drawn) [AGN 201904-Z, sodium {4-[5-Methoxy-2-(4-methoxy-3,5-dimethyl-pyridin-2-ylmethanesulfinyl)-benzoimidazole-1-sulfonyl]-phenoxy}-acetate], the “% time intragastric pH ≧4.0” value is reported as 80.1 % of 24-hr and the “maintaining 24-hour intragastric pH ≧4.0, comparison with esomeprazole” value (healthy male subjects) is reported as “more effective than esomeprazole”.

From patent US20070293543A1, “THRESHOLD BLOOD OMEPRAZOLE CONCENTRATION IS 50 NG/ML FOR THE MAINTENANCE OF INTRAGASTRIC pH OF AT LEAST 4.0 AFTER ORAL DOSING WITH CMA-OMEPRAZOLE, AGN 201904-Z” (priority 2006, published 2007)
